Test results: patent US10219516B2, “Molecules having pesticidal utility, and intermediates, compositions, and processes, related thereto” (priority 2015, dated 2019)
Read-outs that look alike come from different tables or passages of the source.

How the values were obtained:
Assay type in all cases: in vivo
[1] = system: Cabbage Looper (Trichoplusia ni, TRIPNI); experiment: Bioassay on Cabbage Looper (CL), 128-well diet tray assay; conditions: Trichoplusia ni
Summary of the method: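 Using eight wells per molecule, artificial diet was dosed at 50 μg/cm^2 with compound in 90:10 acetone-water and dried before one to five second-instar larvae were added per well. Covered vented trays were kept at 25° C. with 14:10 light-dark for five to seven days, then per-well percent mortality was recorded and averaged.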

[2] = system: Yellow Fever Mosquito (Aedes aegypti, AEDSAE); experiment: Bioassay on Yellow Fever Mosquito (YFM), 96-well plate larval assay; conditions: for YFM rating: Yellow Fever Mosquito, 96-well plate larval assay; for YFM (Biological Results, rating): Species YFM (Yellow Fever Mosquito)
Summary of the method: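 Each well was scored for mortality after 3 days at room temperature under a non-evaporative lid. Test molecules came from DMSO masters (4000 ppm stock) diluted with water/acetone 90:10 and dispensed into six replicate plates, which were then infested with roughly 1-day-old larvae in liver-powder water.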

[3] = system: Beet Armyworm (Spodoptera exigua, LAPHEG); experiment: Bioassay on Beet Armyworm (BAW), 128-well diet tray assay
Summary of the method: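 Artificial diet surface-treated with 50 μg/cm^2 test molecule in 90:10 acetone-water, dried, then infested with one to five second instar larvae per well. Held covered and vented at 25° C., 14:10 light-dark for five to seven days; percent mortality recorded per well and averaged over eight wells.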

[4] = Cabbage Looper, 128-well diet tray assay, read-out: CL rating
[5] = Beet Armyworm, 128-well diet tray assay, read-out: BAW rating
[6] = Species CL (Cabbage Looper), read-out: CL (Biological Results, rating)
[7] = Species BAW (Beet Armyworm), read-out: BAW (Biological Results, rating)

Row | Compound | pest or weed control at 50 µg/cm2 [1, 4] | YFM rating [2] | pest or weed control at 50 µg/cm2 [3, 5] | pest or weed control at 50 µg/cm2 [1, 6] | YFM (Biological Results, rating) [2] | pest or weed control at 50 µg/cm2 [3, 7]
1 | Nc1c(F)cc(F)cc1NC(=O)c1cc(NC(=O)[C@H]2[C@H](c3ccc(F)c(Cl)c3)C2(Cl)Cl)ccc1Cl [F420, N-(2-Amino-3,5-difluorophenyl)-2-chloro-5-((1R,3R)-2,2-dichloro-3-(3-chloro-4-fluorophenyl)cyclopropane-1-carboxamido)benzamide] | 50 to 100% | A (80-100) | 50 to 100% | – | – | –
2 | Cc1cc(N)ccc1NC(=O)c1cc(NC(=O)[C@H]2[C@H](c3ccc(Br)c(Cl)c3)C2(Cl)Cl)ccc1Cl (relative stereo) [F324, N-(4-Amino-2-methylphenyl)-5-(trans-3-(4-bromo-3-chlorophenyl)-2,2-dichlorocyclopropane-1-carboxamido)-2-chlorobenzamide] | – | – | – | 50 to 100% | A (80-100) | 50 to 100%
3 | Cc1cc(F)ccc1NC(=O)c1cccc(NC(=O)[C@H]2[C@H](c3cc(Cl)cc(Cl)c3)C2(Cl)Cl)c1 (relative stereo) [F272, trans-3-(2,2-Dichloro-3-(3,5-dichlorophenyl)cyclopropane-1-carboxamido)-N-(4-fluoro-2-methylphenyl)benzamide] | – | – | – | 50 to 100% | A (80-100) | 50 to 100%
4 | O=C(Nc1ccc(F)cc1F)c1cc(NC(=O)[C@H]2[C@H](c3ccc(Cl)c(Br)c3)C2(Cl)Cl)ccc1Cl [F572, 5-((1R,3R)-3-(3-Bromo-4-chlorophenyl)-2,2-dichlorocyclopropane-1-carboxamido)-2-chloro-N-(2,4-difluorophenyl)benzamide] | 50 to 100% | A (80-100) | 50 to 100% | – | – | –
5 | Nc1c(F)cc(F)cc1NC(=O)c1cc(NC(=O)[C@H]2[C@H](c3cc(Cl)cc(Cl)c3)C2(Cl)Cl)ccc1Cl [F360, N-(2-Amino-3,5-difluorophenyl)-2-chloro-5-((1R,3R)-2,2-dichloro-3-(3,5-dichlorophenyl)cyclopropane-1-carboxamido)benzamide] | – | – | – | 50 to 100% | A (80-100) | 50 to 100%
6 | Nc1c(F)ccc(NC(=O)c2cc(NC(=O)[C@H]3[C@H](c4cc(Cl)c(Cl)c(Cl)c4)C3(Cl)Cl)ccc2Cl)c1F [F315, N-(3-Amino-2,4-difluorophenyl)-2-chloro-5-((1R,3R)-2,2-dichloro-3-(3,4,5-trichlorophenyl)cyclopropane-1-carboxamido)benzamide] | – | – | – | 50 to 100% | A (80-100) | 50 to 100%
7 | O=C(Nc1cc(F)c2cc[nH]c2c1)c1cc(NC(=O)C2C(c3cc(Cl)cc(Cl)c3)C2(Cl)Cl)ccc1Cl (stereo not drawn) [F173, 2-Chloro-5-(trans)-2,2-dichloro-3-(3,5-dichlorophenyl)cyclopropane-1-carboxamido)-N-(4-fluoro-1H-indol-6-yl)benzamide] | – | – | – | 50 to 100% | B (More than 0-Less than 80) | 50 to 100%
8 | CN1Cc2ccc(NC(=O)c3cc(NC(=O)[C@H]4[C@H](c5cc(Cl)cc(Cl)c5)C4(Cl)Cl)ccc3Cl)cc2C1=O (relative stereo) [F517, 2-Chloro-5-(trans)-(2,2-dichloro-3-(3,5-dichlorophenyl)cyclopropane-1-carboxamido)-N-(2-methyl-3-oxoisoindolin-5-yl)benzamide] | 50 to 100% | A (80-100) | 50 to 100% | – | – | –
9 | COc1cc(NC(=O)c2cc(NC(=O)[C@H]3[C@H](c4ccc(F)c(Cl)c4)C3(Cl)Cl)ccc2Cl)c(Br)cn1 (relative stereo) [F549, N-(5-Bromo-2-methoxypyridin-4-yl)-2-chloro-5-(trans-2,2-dichloro-3-(3-chloro-4-fluorophenyl)cyclopropane-1-carboxamido)benzamide] | 50 to 100% | A (80-100) | 50 to 100% | – | – | –
10 | Cc1cc(F)ccc1NC(=O)c1cc(NC(=O)[C@H]2[C@H](c3ccc(F)c(Cl)c3)C2(Cl)Cl)ccc1Cl (relative stereo) [PF48, trans-2-Chloro-5-(2,2-dichloro-3-(3-chloro-4-fluorophenyl)cyclopropane-1-carboxamido)-N-(4-fluoro-2-methylphenyl)benzamide] | 50 to 100% | A (80-100) | 50 to 100% | – | – | –
11 | O=C(Nc1ccc(F)cc1F)c1cc(NC(=O)[C@@H]2[C@@H](c3ccc(Cl)c(Br)c3)C2(Cl)Cl)ccc1Cl [F573, 5-((1S,3S)-3-(3-Bromo-4-chlorophenyl)-2,2-dichlorocyclopropane-1-carboxamido)-2-chloro-N-(2,4-difluorophenyl)benzamide] | 50 to 100% | A (80-100) | 50 to 100% | – | – | –
12 | O=C(Nc1ccc(F)cc1F)c1cc(NC(=O)[C@H]2[C@H](c3ccc(Cl)c(C(F)F)c3)C2(Cl)Cl)ccc1Cl (relative stereo) [F559, 2-Chloro-5-(trans-2,2-dichloro-3-(4-chloro-3-(difluoromethyl)phenyl)cyclopropane-1-carboxamido)-N-(2,4-difluorophenyl)benzamide] | 50 to 100% | A (80-100) | 50 to 100% | – | – | –
13 | CC(C)(C)OC(=O)N(C(=O)OC(C)(C)C)c1c(F)ccc(NC(=O)c2cc(NC(=O)[C@H]3[C@H](c4cccc(C(F)(F)F)c4)C3(Cl)Cl)ccc2Cl)c1F (relative stereo) [F516, trans-tert-Butyl-N-((tert-butoxy)carbonyl)-N-(3-(2-chloro-5-(2,2-dichloro-3-(3-(trifluoromethyl)phenyl)cyclopropane-1-carboxamido)benzamido)-2,6-difluorophenyl)carbamate] | 50 to 100% | A (80-100) | 50 to 100% | – | – | –
14 | COc1ccc(NC(=O)c2cc(NC(=O)[C@H]3[C@H](c4cc(Cl)cc(Cl)c4)C3(Cl)Cl)ccc2Cl)cn1 (relative stereo) [F550, 2-Chloro-5-(trans-2,2-dichloro-3-(3,5-dichlorophenyl)cyclopropane-1-carboxamido)-N-(6-methoxypyridin-3-yl)benzamide] | 50 to 100% | A (80-100) | 50 to 100% | – | – | –
15 | Cc1cc(NC(=O)c2cc(NC(=O)[C@H]3[C@H](c4cc(Cl)cc(Cl)c4)C3(Cl)Cl)ccc2Cl)cc(C)c1F (relative stereo) [PF53, trans-2-Chloro-5-(2,2-dichloro-3-(3,5-dichlorophenyl)cyclopropane-1-carboxamido)-N-(4-fluoro-3,5-dimethylphenyl)benzamide] | 50 to 100% | A (80-100) | 50 to 100% | – | – | –
16 | Cc1cc(N)ccc1NC(=O)c1cccc(NC(=O)[C@H]2[C@H](c3cc(Cl)c(Cl)c(Cl)c3)C2(Cl)Cl)c1 (relative stereo) [F264, trans-N-(4-Amino-2-methylphenyl)-3-(2,2-dichloro-3-(3,4,5-trichlorophenyl)cyclopropane-1-carboxamido)benzamide] | – | – | – | 50 to 100% | A (80-100) | 50 to 100%
